Data as given in patent US11851447B2, “Dinuclear platinum(II) compounds and methods of use thereof” (UNIVERSITY OF IOWA RESEARCH FOUNDATION, priority 2019, dated 2023).
Structures can show the parent of a compound that is named as a salt. Where two headings read alike, the source gives them in different places.

Key:
DNAse I [1] = details: previously reported values (Jang et al., J. Biomol. Screen. 2015); cited from earlier work
DNAse I [2] = test: DNAse I inhibitor assay based on NIR emission of 4/QIII ensemble; type: biochemical; details: [4]=4 μM, [QIII]=8 μM, [DNAse I]=4 U/ml, NIR emission at 785 nm; read-out: IC50 (DNAse I inhibition)
Protocol: General Procedure for Multiwell DNAse I Assay. A reaction mixture (total volume of 100 μL) containing 4 (4 μM) and QIII (8 μM) was prepared in 9:1 Tris buffer (10 mM Tris-HCl, 0.25 mM MgCl2, 0.1 mM CaCl2, pH 7.5):DMSO. Tris buffer was prepared using nuclease-free water. The reaction mixtures were prepared in white 96-well plates (Costar, Corning, NY) and incubated at room temperature for 2 min. Varying concentrations of DNAse I prepared in Tris buffer (10 mM Tris-HCl, 0.25 mM MgCl2, 0.1 mM CaCl2, pH 7.5) were added to the reaction mixture and incubated at room temperature for 10 min. Fluorescence spectra were obtained using Agilent Cary Eclipse fluorescence spectrophotometer, λex=445 nm. NIR emission intensity at 785 nm was detected.
Determination of IC50 Values of DNAse I Inhibitors. DNAse I assay was performed as previously described in the presence of DNAse I (4 U) and various concentrations of the inhibitor. Stock solutions of the inhibitors were prepared in Tris buffer (10 mM Tris-HCl, pH 7.5). The IC50 values were calculated by plotting log[inhibitor] versus NIR emission intensity of 4. The dose-response curves were analyzed by nonlinear regression using GraphPad Prism 8.0 (GraphPad Software, Inc., La Jolla, CA, USA).

## O=C(O)CN(CCN(CC(=O)O)CC(=O)O)CC(=O)O [EDTA]
DNAse I [1]
  IC50: 190 µM
DNAse I [2]
  IC50: 202 µM

## N=C(N)NNc1ccc(NNC(=N)N)cc1 [JR-132, 1,4-phenylene-bis-aminoguanidine hydrochloride]
DNAse I [1]
  IC50: 2.73 µM
DNAse I [2]
  IC50: 2.29 µM

## [Cl-].[Cl-].[Zn+2] [ZnCl2]
DNAse I [1]
  IC50: 18 µM
DNAse I [2]
  IC50: 20.7 µM
